Results taken from the supplement of paper PMC10307832.

Tests used:
Experiment in all cases: relative viability (nuclei count vs DMSO), 5 days (fraction); higher = more cells survive
AZD8055 + Decitabine = compound: COc1ccc(-c2ccc3c(N4CCOC[C@@H]4C)nc(N4CCOC[C@@H]4C)nc3n2)cc1CO [AZD8055] + Nc1ncn([C@H]2C[C@H](O)[C@@H](CO)O2)c(=O)n1 [Decitabine] (partner 2 µM)
Method in brief: (§1)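 Relative viability is defined as nuclei in treated wells over nuclei in vehicle wells. Duplicate plates were run and medians reported. Lung cancer cell lines in 1536-well plates were dosed by pin tool one day after seeding, with one drug or with a fixed anchor-drug dose plus five library-drug doses (not always all listed) in √10 steps, and nuclei were counted after 5 days.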

AZD8055 + Crizotinib = compound: COc1ccc(-c2ccc3c(N4CCOC[C@@H]4C)nc(N4CCOC[C@@H]4C)nc3n2)cc1CO [AZD8055] + C[C@@H](Oc1cc(-c2cnn(C3CCNCC3)c2)cnc1N)c1c(Cl)ccc(F)c1Cl [Crizotinib] (partner 1 µM)
Method in brief: as §1

AZD8055 + Phenformin = compound: COc1ccc(-c2ccc3c(N4CCOC[C@@H]4C)nc(N4CCOC[C@@H]4C)nc3n2)cc1CO [AZD8055] + N=C(N)NC(=N)NCCc1ccccc1 [Phenformin] (partner 250 µM)
Method in brief: as §1

AZD8055 + Navitoclax = compound: COc1ccc(-c2ccc3c(N4CCOC[C@@H]4C)nc(N4CCOC[C@@H]4C)nc3n2)cc1CO [AZD8055] + CC1(C)CCC(c2ccc(Cl)cc2)=C(CN2CCN(c3ccc(C(=O)NS(=O)(=O)c4ccc(N[C@H](CCN5CCOCC5)CSc5ccccc5)c(S(=O)(=O)C(F)(F)F)c4)cc3)CC2)C1 [Navitoclax] (partner 0.5 µM)
Method in brief: as §1

Cell Line	relative viability (AZD8055 + Decitabine; first compound 0.01 µM)	relative viability (AZD8055 + Decitabine; first compound 0.03162 µM)	relative viability (AZD8055 + Decitabine; first compound 0.1 µM)	relative viability (AZD8055 + Decitabine; first compound 0.3162 µM)	relative viability (AZD8055 + Decitabine; first compound 1 µM)	relative viability (AZD8055 + Crizotinib; first compound 0.01 µM)	relative viability (AZD8055 + Crizotinib; first compound 0.03162 µM)	relative viability (AZD8055 + Crizotinib; first compound 0.1 µM)	relative viability (AZD8055 + Crizotinib; first compound 0.3162 µM)	relative viability (AZD8055 + Crizotinib; first compound 1 µM)	relative viability (AZD8055 + Phenformin; first compound 0.01 µM)	relative viability (AZD8055 + Phenformin; first compound 0.03162 µM)	relative viability (AZD8055 + Phenformin; first compound 0.1 µM)	relative viability (AZD8055 + Phenformin; first compound 0.3162 µM)	relative viability (AZD8055 + Phenformin; first compound 1 µM)	relative viability (AZD8055 + Navitoclax; first compound 0.01 µM)	relative viability (AZD8055 + Navitoclax; first compound 0.03162 µM)	relative viability (AZD8055 + Navitoclax; first compound 0.1 µM)	relative viability (AZD8055 + Navitoclax; first compound 0.3162 µM)	relative viability (AZD8055 + Navitoclax; first compound 1 µM)
HCC-366	0.392	0.233	0.281	0.144	0.14	0.416	0.484	0.223	0.107	0.0921	0.737	0.449	0.592	0.23	0.168	1.15	0.911	0.694	0.418	0.132
HCC-827	0.329	0.279	0.278	0.262	0.23	1	0.965	0.991	0.479	0.393	0.426	0.395	0.416	0.349	0.288	1.03	0.991	1.03	0.92	0.456
HOP-62	0.193	0.213	0.239	0.215	0.194	0.837	0.853	0.71	0.387	0.345	0.717	0.628	0.585	0.462	0.294	1.09	1.11	1.17	0.75	0.594
LC-2-ad	0.911	0.729	0.788	0.835	0.67	0.429	0.502	0.473	0.384	0.312	0.549	0.564	0.538	0.336	0.362	0.349	0.309	0.163	0.185	0.154
LCLC-97TM1	0.239	0.184	0.17	0.133	0.147	0.365	0.352	0.154	0.158	0.193	0.477	0.182	0.178	0.121	0.187	0.45	0.225	0.214	0.13	0.144
LK-2	0.273	0.19	0.156	0.146	0.144	0.231	0.188	0.267	0.205	0.211	0.234	0.186	0.118	0.198	0.239	0.797	0.584	0.441	0.216	0.241
LOU-NH91	0.85	0.809	0.72	0.577	0.615	0.71	0.713	0.673	0.592	0.531	0.678	0.711	0.532	0.49	0.455	0.708	0.642	0.587	0.466	0.437
LU99A	1	0.666	0.417	0.222	0.188	0.517	0.329	0.234	0.233	0.232	0.802	0.626	0.492	0.276	0.28	0.69	0.517	0.232	0.164	0.191
LXF-289	0.397	0.317	0.369	0.343	0.356	0.902	0.855	0.807	0.702	0.686	0.539	0.534	0.508	0.458	0.385	0.979	0.995	0.831	0.694	0.529
NCI-H23	0.252	0.287	0.262	0.225	0.262	0.562	0.507	0.41	0.295	0.265	0.785	0.778	0.713	0.465	0.403	0.879	0.847	0.677	0.318	0.253
NCI-H322M	0.71	0.601	0.617	0.555	0.588	0.868	1.03	0.825	0.796	0.478	0.726	0.704	0.662	0.501	0.502	1.17	1.09	0.845	0.488	0.546
NCI-H441	0.284	0.233	0.225	0.206	0.246	0.767	0.667	0.565	0.359	0.232	0.767	0.574	0.628	0.27	0.343	0.748	0.955	0.464	0.334	0.251
NCI-H460	0.573	0.352	0.353	0.246	0.13	1.05	0.654	0.818	0.106	0.0777	0.609	0.474	0.124	0.049	0.034	1.19	0.892	0.523	0.121	0.0653
NCI-H520	0.486	0.242	0.229	0.176	0.165	0.58	0.53	0.37	0.195	0.194	0.467	0.219	0.211	0.158	0.156	0.928	0.612	0.359	0.21	0.176
NCI-H596	1.06	0.841	0.698	0.571	0.528	1	0.78	0.624	0.322	0.423	0.777	0.685	0.608	0.407	0.375	0.975	0.67	0.369	0.288	0.241
NCI-H647	0.35	0.271	0.198	0.195	0.126	1	0.619	0.445	0.303	0.177	0.564	0.412	0.331	0.14	0.15	1.35	1.03	0.637	0.391	0.219
